Reference: ChEMBL document CHEMBL3407433, “A high-throughput screen reveals new small-molecule activators and inhibitors of pantothenate kinases” (J Med Chem, 2015)

What was measured:
[1] = biological target: T1, Pantothenate kinase 3 (Homo sapiens, UniProt Q9H999); assay: Inhibition of Pank3 (unknown origin) by Kinase Glo HTS assay
Target sequence in this assay (Q9H999 whole entry): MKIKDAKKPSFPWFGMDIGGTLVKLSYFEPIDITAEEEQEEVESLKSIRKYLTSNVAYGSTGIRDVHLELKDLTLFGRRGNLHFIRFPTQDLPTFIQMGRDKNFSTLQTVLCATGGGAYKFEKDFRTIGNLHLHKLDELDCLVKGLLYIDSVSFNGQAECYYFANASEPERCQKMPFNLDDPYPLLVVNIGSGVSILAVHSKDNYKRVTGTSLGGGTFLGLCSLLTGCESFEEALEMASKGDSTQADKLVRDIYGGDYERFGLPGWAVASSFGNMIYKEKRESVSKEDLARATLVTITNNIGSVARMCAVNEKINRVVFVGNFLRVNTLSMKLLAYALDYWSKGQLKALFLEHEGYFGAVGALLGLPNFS

[2] = biological target: T2, Pantothenate kinase 1 (Homo sapiens, UniProt Q8TE04); assay: Inhibition of Pank1beta (unknown origin) by Kinase Glo HTS assay
[3] = biological target: T1, Pantothenate kinase 3; assay: Activation of Pank3 (unknown origin) by Kinase Glo HTS assay
Target sequence in this assay (Q9H999 whole entry): as above

[4] = biological target: T2, Pantothenate kinase 1; assay: Inhibition of purified human Pank1beta using d-[1-14C]pantothenate as substrate after 10 mins by radiochemical enzyme assay
[5] = biological target: T3, Pantothenate kinase 2, mitochondrial (Homo sapiens, UniProt Q9BZ23); assay: Inhibition of purified human Pank2 using d-[1-14C]pantothenate as substrate after 10 mins by radiochemical enzyme assay
T3 sequence (Q9BZ23 whole entry): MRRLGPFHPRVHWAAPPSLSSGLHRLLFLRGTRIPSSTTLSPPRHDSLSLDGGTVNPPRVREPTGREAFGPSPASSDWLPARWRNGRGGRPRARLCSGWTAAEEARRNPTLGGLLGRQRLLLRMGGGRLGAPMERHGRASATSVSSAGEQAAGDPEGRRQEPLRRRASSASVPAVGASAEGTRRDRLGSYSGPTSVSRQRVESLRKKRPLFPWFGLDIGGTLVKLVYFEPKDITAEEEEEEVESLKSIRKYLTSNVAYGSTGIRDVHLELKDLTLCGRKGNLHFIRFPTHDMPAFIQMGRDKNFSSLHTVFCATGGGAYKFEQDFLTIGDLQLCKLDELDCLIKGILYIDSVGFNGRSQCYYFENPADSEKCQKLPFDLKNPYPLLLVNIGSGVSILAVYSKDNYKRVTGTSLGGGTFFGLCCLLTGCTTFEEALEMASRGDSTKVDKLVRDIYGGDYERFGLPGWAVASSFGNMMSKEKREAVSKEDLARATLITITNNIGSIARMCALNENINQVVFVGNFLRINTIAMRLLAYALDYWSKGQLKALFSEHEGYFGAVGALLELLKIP

[6] = biological target: T1, Pantothenate kinase 3; assay: Inhibition of purified human Pank3 using d-[1-14C]pantothenate as substrate after 10 mins by radiochemical enzyme assay
Target sequence in this assay (Q9H999 whole entry): as the sequence (Q9H999 whole entry) above

[7] = biological target: T1, Pantothenate kinase 3
Target sequence in this assay (Q9H999 whole entry, looked up): as the sequence (Q9H999 whole entry) above
Description: Binding affinity to purified human Pank3 assessed as thermal stabilization by thermal shift assay in presence of 2 mM ATP/Mg2+

T2 sequence (Q8TE04 whole entry): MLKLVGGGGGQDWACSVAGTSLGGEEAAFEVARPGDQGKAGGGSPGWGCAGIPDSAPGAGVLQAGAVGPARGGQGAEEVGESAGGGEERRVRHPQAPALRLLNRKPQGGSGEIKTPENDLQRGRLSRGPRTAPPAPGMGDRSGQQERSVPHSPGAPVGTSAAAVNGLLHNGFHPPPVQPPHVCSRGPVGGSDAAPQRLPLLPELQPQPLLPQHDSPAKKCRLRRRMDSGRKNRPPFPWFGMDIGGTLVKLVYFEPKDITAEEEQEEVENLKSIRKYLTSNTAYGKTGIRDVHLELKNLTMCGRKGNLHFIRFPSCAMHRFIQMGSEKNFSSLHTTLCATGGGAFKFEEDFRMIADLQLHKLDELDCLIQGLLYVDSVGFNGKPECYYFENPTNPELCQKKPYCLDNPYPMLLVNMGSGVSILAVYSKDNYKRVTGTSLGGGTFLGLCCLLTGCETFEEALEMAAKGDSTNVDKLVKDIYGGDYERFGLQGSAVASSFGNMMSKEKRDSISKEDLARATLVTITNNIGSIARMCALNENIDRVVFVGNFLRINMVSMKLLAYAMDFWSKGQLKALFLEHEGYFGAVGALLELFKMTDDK

Structure (SMILES)	IC50 [1] [µM]	IC50 [2] [nM]	also measured
CCS(=O)(=O)Nc1ccc(C(=O)NC2CC3CCC2C3)cc1 (stereo not drawn)	0.18	–	–
COc1ccccc1NC(=O)CCc1c(C)nc2c3cccnc3nn2c1C	> 56	> 56000	–
COc1cccc(CNC(=O)CCc2c(C)nc3c4cccnc4nn3c2C)c1	> 56	> 56000	–
COc1ccc(CNC(=O)CCc2c(C)nc3c4cccnc4nn3c2C)cc1	25.8	14700	–
CC(C)c1ccc(NC(=O)CCc2nc(O)c3c4c(sc3n2)CCC4)cc1	0.12	–	–
COC(=O)c1cccc(NC(=O)CCc2c(C)nc3c4cccnc4nn3c2C)c1	> 56	> 56000	–
Cc1nc2c3cccnc3nn2c(C)c1CCC(=O)N(C)c1ccccc1	> 56	> 56000	–
COc1ccc(NC(=O)CCc2c(C)nc3c4cccnc4nn3c2C)cc1	11.3	6690	–
Cc1nc2c3cccnc3nn2c(C)c1CCC(=O)NCC1CCCCC1	40.9	1220	–
Cc1nc2c3cccnc3nn2c(C)c1CCC(=O)NCc1cccc(F)c1	10	15800	–
Cc1nc2c3cccnc3nn2c(C)c1CCC(=O)Nc1ccc(F)cc1	> 56	> 56000	–
Cc1nc2c3cccnc3nn2c(C)c1CCC(=O)Nc1ccccc1	24.5	850	–
Cc1ccc(NC(=O)N2CCN(c3ccccc3F)CC2)c(C)c1	–	–	EC50 [3]: 2410 nM
Cc1ccc(NC(=O)CCc2c(C)nc3c4cccnc4nn3c2C)cc1	25.6	11200	–
Cc1nc2c3cccnc3nn2c(C)c1CCC(=O)Nc1cccc(C(F)(F)F)c1	0.83	190	–
Cc1cccc(NC(=O)CCc2c(C)nc3c4cccnc4nn3c2C)c1	3.84	1570	–
Cc1nc2c3cccnc3nn2c(C)c1CCC(=O)Nc1ccccc1F	13.6	550	–
Cc1nc2c3cccnc3nn2c(C)c1CCC(=O)NC1CCCCC1	> 56	13600	–
CSc1cccc(NC(=O)CCc2c(C)nc3c4cccnc4nn3c2C)c1	0.36	140	IC50 [4]: 70 nM; IC50 [5]: 92 nM; IC50 [6]: 25 nM; Kapp [7]: 0.3 µM
CCN(CC)c1ccc(CNc2nn[nH]n2)cc1	–	–	EC50 [3]: 3430 nM
COc1cccc(NC(=O)CCc2c(C)nc3c4cccnc4nn3c2C)c1	1.64	280	–
O=C(Cc1ccc(F)cc1)N1CCN(c2nc3c(Cl)cccc3s2)CC1	–	–	EC50 [3]: 1510 nM
CC(=O)Nc1ccc(NC(=O)CCc2c(C)nc3c4cccnc4nn3c2C)cc1	0.35	640	–
Cc1nc2c3cccnc3nn2c(C)c1CCC(=O)Nc1cccc(F)c1	0.62	240	–
CC(C)CCNC(=O)c1csc(-c2cccc(Cl)c2Cl)n1	2.45	–	–
CC(C(=O)Nc1cc(Cl)ccc1Cl)N1CCC(C(=O)NCc2ccccc2)CC1 (stereo not drawn)	–	–	EC50 [3]: 1720 nM
CSc1ccc(NC(=O)CCc2c(C)nc3c4cccnc4nn3c2C)cc1	10.5	3240	–
Cc1nc2c3cccnc3nn2c(C)c1CCC(=O)NCc1ccc(F)cc1	> 56	> 56000	–
